Where a name gives a salt, the structure may show the parent alone. Read-outs that look alike come from different tables or passages of the source.
How the values were obtained:
Format in all cases: cell-based
[1] = target: 5-HT2B (Homo sapiens, UniProt P41595); assay: Calcium mobilization assay (Gq signaling), 5-HT2B
Experimental: (§1) The Calcium No-Wash^PLUS assay monitors the activation of a GPCR via Gq secondary messenger signaling in a live cell, non-imaging assay format. Calcium mobilization in PathHunter® cell lineSOR other cell lines stably expressing Gq-Coupled GPCR5 is monitored using a calcium-sensitive dye that is loaded into cells. GPCR activation by a compound results in the release of calcium from intracellular stores and an increase in dye fluorescence that is measured in real-time.
Cell lines expressing the GPCR of interest were expanded from freezer stocks according to standard procedures. Cells were seeded in a total volume of 20 μL into black-walled, clear-bottom, Poly-D-lysine coated 384-well microplates and incubated at 37° C. for the appropriate time prior to testing. Assays were performed in 1× Dye Loading Buffer consisting of 1× Dye, 1× Additive A and 2.5 mM Probenecid in HB SS/20 mM Hepes. Probenicid was prepared fresh. Cells were loaded with dye prior to testing. Media was aspirated from cells and replaced with 20 μL Dye Loading Buffer. Cells were incubated for 30-60 minutes at 37° C. For agonist determination, cells were incubated with sample to induce response. After dye loading, cells were removed from the incubator and 10 μL HBSS/20 mM Hepes was added. […] Compound agonist activity was measured on a FLIPR Tetra (MDS). Calcium mobilization was monitored for 2 minutes and 10 μL 4× sample in HB SS/20 mM Hepes was added to the cells 5 seconds into the assay. Compound activity data was analyzed using CBIS data analysis suite (ChemInnovation, California). For agonist mode assays, percentage activity is calculated using the following formula: % Activity=100%×(mean RFU of test sample−mean RFU of vehicle control)/(mean MAX RFU control ligand−mean RFU of vehicle control). […]
(§2) Compounds 1-1·HCl, 1-2 and 2-1 were assessed for biological activity across a panel of 5-HT receptors including 5-HT2A, 5-HT2B, 5-HT2C and 5-HT1A. Biased signaling was assessed by monitoring both intracellular Gq-mediated calcium release, as well as beta-arrestin activation and recruitment to the GPCR.

[2] = target: T1, 5-HT1A (Homo sapiens, UniProt P08908); assay: Calcium mobilization assay (Gq signaling), 5-HT1A
T1 sequence (P08908 1-422): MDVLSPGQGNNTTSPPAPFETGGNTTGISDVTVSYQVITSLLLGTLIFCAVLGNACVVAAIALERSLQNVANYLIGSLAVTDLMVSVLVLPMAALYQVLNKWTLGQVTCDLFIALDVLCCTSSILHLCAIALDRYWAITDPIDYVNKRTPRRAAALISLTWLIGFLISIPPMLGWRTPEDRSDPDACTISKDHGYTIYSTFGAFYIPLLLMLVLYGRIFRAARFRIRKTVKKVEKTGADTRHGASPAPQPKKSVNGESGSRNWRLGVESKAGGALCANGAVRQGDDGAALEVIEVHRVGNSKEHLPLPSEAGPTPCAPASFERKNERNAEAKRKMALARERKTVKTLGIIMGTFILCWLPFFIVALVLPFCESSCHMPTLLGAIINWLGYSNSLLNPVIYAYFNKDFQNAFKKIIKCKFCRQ
Experimental: as §1
(§3) Cell lines expressing the GPCR of interest were expanded from freezer stocks according to standard procedures. […] Compound agonist activity was measured on a FLIPR Tetra (MDS). Calcium mobilization was monitored for 2 minutes and 10 μL 4× sample in HB SS/20 mM Hepes was added to the cells 5 seconds into the assay. Compound activity data was analyzed using CBIS data analysis suite (ChemInnovation, California). For agonist mode assays, percentage activity is calculated using the following formula: % Activity=100%×(mean RFU of test sample−mean RFU of vehicle control)/(mean MAX RFU control ligand−mean RFU of vehicle control). […]
as §2

[3] = target: T2, 5HT2A (Homo sapiens, UniProt P28223); assay: PathHunter β-Arrestin assay, 5-HT2A
Experimental: PathHunter cell lines (DiscoveRx Eurofins) were expanded from freezer stocks according to standard procedures. Cells were seeded in a total volume of 20 μL into white walled, 384-well microplates and incubated at 37° C. for the appropriate time prior to testing. For agonist determination, cells were incubated with sample to induce response. Intermediate dilution of sample stocks was performed to generate 5× sample in assay buffer. 5 μL of 5× sample was added to cells and incubated at 37° C. or room temperature for 90 to 180 minutes. […] Microplates were read following signal generation with a PerkinElmer Envision™ instrument for chemiluminescent signal detection. Compound activity was analyzed using CBIS data analysis suite (ChemInnovation, California). For agonist mode assays, percentage activity was calculated using the following formula: % Activity=100%×(mean RLU of test sample−mean RLU of vehicle control)/(mean MAX control ligand−mean RLU of vehicle control). […]
as §2

[4] = target: T2, 5HT2A; assay: Calcium mobilization assay (Gq signaling), 5-HT2A; settings: for type of agonism of 5-HT2A mediated signaling: EC50 profiles, FIG. 1; for Emax: read-out: maximum effect level, Gq signaling
Experimental: as §1
Cell lines expressing the GPCR of interest were expanded from freezer stocks according to standard procedures. Cells were seeded in a total volume of 20 μL into black-walled, clear-bottom, Poly-D-lysine coated 384-well microplates and incubated at 37° C. for the appropriate time prior to testing. Assays were performed in 1× Dye Loading Buffer consisting of 1× Dye, 1× Additive A and 2.5 mM Probenecid in HB SS/20 mM Hepes. Probenicid was prepared fresh. Cells were loaded with dye prior to testing. Media was aspirated from cells and replaced with 20 μL Dye Loading Buffer. Cells were incubated for 30-60 minutes at 37° C. For agonist determination, cells were incubated with sample to induce response. After dye loading, cells were removed from the incubator and 10 μL HBSS/20 mM Hepes was added. 3× vehicle was included in the buffer when performing agonist dose curves to define the EC80 for subsequent antagonist assays. Cells were incubated for 30 minutes at room temperature in the dark to equilibrate plate temperature. Intermediate dilution of sample stocks was performed to generate 4× sample in assay buffer. Compound agonist activity was measured on a FLIPR Tetra (MDS). Calcium mobilization was monitored for 2 minutes and 10 μL 4× sample in HB SS/20 mM Hepes was added to the cells 5 seconds into the assay. Compound activity data was analyzed using CBIS data analysis suite (ChemInnovation, California). For agonist mode assays, percentage activity is calculated using the following formula: % Activity=100%×(mean RFU of test sample−mean RFU of vehicle control)/(mean MAX RFU control ligand−mean RFU of vehicle control). In these studies, the MAX RFU was generated by using 0.1 μM serotonin for the calcium mobilization assay.
as §2

[5] = target: T3, 5-HT2C (Homo sapiens, UniProt P28335); assay: Calcium mobilization assay (Gq signaling), 5-HT2C
T3 sequence (P28335 33-458): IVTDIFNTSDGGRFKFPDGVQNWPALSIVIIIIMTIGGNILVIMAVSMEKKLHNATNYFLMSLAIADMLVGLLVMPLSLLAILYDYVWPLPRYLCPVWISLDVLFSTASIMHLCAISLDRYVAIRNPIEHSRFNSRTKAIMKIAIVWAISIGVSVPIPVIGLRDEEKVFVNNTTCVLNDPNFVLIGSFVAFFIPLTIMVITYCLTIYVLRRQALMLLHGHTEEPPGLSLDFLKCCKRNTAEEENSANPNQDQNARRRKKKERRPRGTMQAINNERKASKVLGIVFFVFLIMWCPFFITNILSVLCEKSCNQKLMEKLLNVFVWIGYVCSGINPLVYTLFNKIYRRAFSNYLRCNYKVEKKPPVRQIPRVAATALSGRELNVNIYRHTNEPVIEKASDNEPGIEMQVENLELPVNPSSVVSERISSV
Experimental: as §1, §3, §2

[6] = target: T2, 5HT2A; assay: 5HT2A Activity (% Max Activation @ 0.3 uM)

T2 sequence (P28223 whole entry): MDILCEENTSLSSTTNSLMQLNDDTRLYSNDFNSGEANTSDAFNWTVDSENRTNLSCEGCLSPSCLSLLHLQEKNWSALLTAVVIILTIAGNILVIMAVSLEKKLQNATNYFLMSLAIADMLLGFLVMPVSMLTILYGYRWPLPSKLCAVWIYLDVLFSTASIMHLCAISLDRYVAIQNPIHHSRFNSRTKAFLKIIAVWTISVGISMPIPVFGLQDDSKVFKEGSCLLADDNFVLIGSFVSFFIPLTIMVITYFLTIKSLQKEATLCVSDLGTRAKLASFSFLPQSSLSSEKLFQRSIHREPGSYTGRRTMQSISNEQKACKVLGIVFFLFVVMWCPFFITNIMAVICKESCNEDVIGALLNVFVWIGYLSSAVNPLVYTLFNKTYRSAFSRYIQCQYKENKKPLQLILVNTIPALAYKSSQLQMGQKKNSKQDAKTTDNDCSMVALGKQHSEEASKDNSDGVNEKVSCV
Sequence of 5-HT2B (P41595 whole entry): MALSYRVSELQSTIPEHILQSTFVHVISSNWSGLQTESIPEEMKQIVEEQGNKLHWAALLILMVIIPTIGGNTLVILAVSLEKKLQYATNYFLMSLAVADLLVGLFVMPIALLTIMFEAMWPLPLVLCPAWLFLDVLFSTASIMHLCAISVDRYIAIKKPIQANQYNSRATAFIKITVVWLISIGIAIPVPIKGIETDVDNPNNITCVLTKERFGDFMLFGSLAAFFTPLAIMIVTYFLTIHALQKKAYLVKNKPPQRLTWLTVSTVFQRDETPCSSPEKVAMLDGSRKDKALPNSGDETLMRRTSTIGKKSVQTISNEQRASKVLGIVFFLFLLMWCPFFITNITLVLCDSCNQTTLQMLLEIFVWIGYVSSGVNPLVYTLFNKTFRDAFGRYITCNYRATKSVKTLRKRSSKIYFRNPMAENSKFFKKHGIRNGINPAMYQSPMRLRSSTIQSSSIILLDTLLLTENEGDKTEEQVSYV

Row | SMILES | EC50 ([1]; Gq signaling, read-out: EC50, 5-HT2B (Gq signaling)) [µM] | EC50 ([2]; Gq signaling, read-out: EC50, 5-HT1A (Gq signaling)) [µM] | EC50 [3] [µM] | EC50 [4] [µM] | type of agonism of 5-HT2A mediated signaling [4] | Emax [4] [%] | EC50 ([5]; Gq signaling, read-out: EC50, 5-HT2C (Gq signaling)) [µM] | EC50 [1] [µM] | activity at 5-HT2B ([1]; concentrations less than 10 uM) | EC50 [2] [µM] | selectivity for 5-HT2A over 5-HT2B ([4]; 5-HT2A compared to 5-HT2B) [fold] | EC50 [5] [µM] | Emax at 0.3 µM [6] [%]
1 | COc1ccc(OC)c2c1CCC(NCc1cc(C)cc(Cl)c1)C2 (centres unmarked) [1-1·HCl, N-(3-chloro-5-methylbenzyl)-5,8-dimethoxy-1,2,3,4-tetrahydronaphthalen-2-amine hydrochloride] | 23.2 | 17.2 | 0.172 | 0.134 | full-agonism | ~100 | 10 | – | – | – | – | – | –
2 | COc1ccc(OC)c(CCNCc2cc(C)cc(Cl)c2)c1 [Compound 2-1, N-(3-chloro-5-methylbenzyl)-2-(2,5-dimethoxyphenyl)ethan-1-amine] | – | – | 0.023 | 0.01 | partial-agonist | ~86 | – | 44.1 | no appreciable activity | 24.7 | ~4400 | 0.091 | 98

Reference: patent publication US11926574B2, “Dimethoxyphenylalkylamine activators of serotonin receptors” (Entheogenix Biosciences, Inc., priority 2021, dated 2024)
